Molecules are shown by their SMILES.

Test [1] deals with Candida albicans. The note with it: microtiter broth, 25° C., 3-5 days. As for the experimental part:
(§1) The susceptibility of selected pathogens to individual and mixtures of acetic and boric acid was investigated, in vitro. Fresh isolates of Staphylococcus intermedius, Pseudomonas aeruginosa, Candida albicans, Microsporum canis and Malassezia pachydermatis were obtained from VHUP Clinical Veterinary Microbiology Laboratory. Staphylococcus and Pseudomonas were grown on Mueller-Hinton (M-H) broth overnight at approximately 37° C. and fungi were inoculated into Sabourauds Antibiotic broth medium and incubated at 25° C. for 4 days. Stock dilutions (2x) of both boric acid and acetic acid were prepared in M-H broth (for bacteria studies) or in Sabourauds Antibiotic Broth (for fungal studies). These concentrations were 1.0%, 4.0%, 7.5% and 10.0%. The stock solutions were used to prepare the full spectrum of all possible combinations of acetic and boric acids in 96 well microtiter plates. All wells were raised to a final volume of 100 ul as required. The organisms were diluted to an approximate concentration of 10^5 cfu and 10 ul of this preparation was inolculated into each well with an 8 channel micropipeter. The microtiter plates containing the bacteria were incubated at 35.5° C. for 18 to 24 hours. The plates containing the fungi were incubated at 25° C. for 3-5 days. The presence of the growth in the wells was recorded. These values determine the Minimum Inhibitory Concentration (MIC) of the acids at individual and mixed concentrations.

In another test the test system is Pseudomonas aeruginosa. Particulars: microtiter broth, 35.5° C., 18 to 24 hours. As for the experimental part: as §1
In test [2] the test system is Staphylococcus intermedius. Particulars: microtiter broth, 35.5° C., 18 to 24 hours. As for the experimental part: as §1
In test [3] the test system is Candida albicans. The note with it: in vitro; cited from earlier work.
The subject of the next test is vulvovaginal candidiasis. Particulars: in vivo; cited from earlier work.
A further test concerns fungi causing otomycosis. Particulars: in vitro, five fungi; cited from earlier work.

As to `OB(O)O` [Boric acid, boric acid], the growth inhibition entry (in the test with Candida albicans [1]; with Pseudomonas aeruginosa; in test [2]) was “inhibited” in each case. In addition, the “activity against Candida albicans” value in the test on Candida albicans [3] is listed as “fungistatic”. In the test with vulvovaginal candidiasis, the “efficacy in treating vulvovaginal candidiasis” value is given as “effective”.

`CC(=O)O` [acetic acid]: the fungitoxic effect result in the test on fungi causing otomycosis is “Some antifungal effect”.
